Test results published in US20140288074A1, “FUNGICIDAL PYRAZOLES” (E I DU PONT DE NEMOURS AND COMPANY, priority 2013, published 2014).

Legend:
Alternaria solani = assay: Test B: preventive spray on tomato seedlings, tomato early blight, visual disease rating; type: in vivo; conditions: 200 ppm test suspension, Alternaria solani inoculated the day after spraying
Protocol: General protocol for preparing test suspensions for Tests A-G: the test compounds were first dissolved in acetone in an amount equal to 3% of the final volume and then suspended at the desired concentration (in ppm) in acetone and purified water (50/50 mix by volume) containing 250 ppm of the surfactant Trem® 014 (polyhydric alcohol esters). The resulting test suspensions were then used in Tests A-G. Each test was conducted in triplicate, and the results were averaged. Spraying a 200 ppm test suspension to the point of run-off on the test plants was the equivalent of a rate of 800 g/ha. Unless otherwise indicated, the rating values indicate a 200 ppm test suspension was used. (An asterisk “*” next to the rating value indicates a 40 ppm test suspension was used.) The test suspension was sprayed to the point of run-off on tomato seedlings. The following day the seedlings were inoculated with a spore suspension of Alternaria solani (the causal agent of tomato early blight) and incubated in a saturated atmosphere at 27° C. for 48 h, and then moved to a growth chamber at 20° C. for 5 days, after which time visual disease ratings were made. Results for Tests A-G are given in Table A. In the Table, a rating of 100 indicates 100% disease control and a rating of 0 indicates no disease control (relative to the controls). A hyphen (-) indicates no test results.

[1] = tested on: Puccinia recondita f. sp. tritici; assay: Test F: preventive spray on wheat seedlings, wheat leaf rust, visual disease rating; type: in vivo; conditions: 200 ppm test suspension, Puccinia recondita f. sp. tritici inoculated the day after spraying; for pest or weed control at 200 ppm: 168 h
Protocol: General protocol for preparing test suspensions for Tests A-G: the test compounds were first dissolved in acetone in an amount equal to 3% of the final volume and then suspended at the desired concentration (in ppm) in acetone and purified water (50/50 mix by volume) containing 250 ppm of the surfactant Trem® 014 (polyhydric alcohol esters). The resulting test suspensions were then used in Tests A-G. Each test was conducted in triplicate, and the results were averaged. Spraying a 200 ppm test suspension to the point of run-off on the test plants was the equivalent of a rate of 800 g/ha. Unless otherwise indicated, the rating values indicate a 200 ppm test suspension was used. (An asterisk “*” next to the rating value indicates a 40 ppm test suspension was used.) The test suspension was sprayed to the point of run-off on wheat seedlings. The following day the seedlings were inoculated with a spore suspension of Puccinia recondita f. sp. tritici (the causal agent of wheat leaf rust) and incubated in a saturated atmosphere at 20° C. for 24 h, and then moved to a growth chamber at 20° C. for 6 days, after which time visual disease ratings were made. Results for Tests A-G are given in Table A. In the Table, a rating of 100 indicates 100% disease control and a rating of 0 indicates no disease control (relative to the controls). A hyphen (-) indicates no test results.

[2] = tested on: Blumeria graminis f. sp. tritici; assay: Test G: preventive spray on wheat seedlings, wheat powdery mildew, visual disease rating;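 as to all read-outs here: rated 8 days after spore dust inoculation at 20 °C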; type: in vivo; conditions: 200 ppm test suspension, Blumeria graminis f. sp. tritici inoculated the day after spraying; for pest or weed control at 200 ppm: 192 h
Protocol: General protocol for preparing test suspensions for Tests A-G: the test compounds were first dissolved in acetone in an amount equal to 3% of the final volume and then suspended at the desired concentration (in ppm) in acetone and purified water (50/50 mix by volume) containing 250 ppm of the surfactant Trem® 014 (polyhydric alcohol esters). The resulting test suspensions were then used in Tests A-G. Each test was conducted in triplicate, and the results were averaged. Spraying a 200 ppm test suspension to the point of run-off on the test plants was the equivalent of a rate of 800 g/ha. Unless otherwise indicated, the rating values indicate a 200 ppm test suspension was used. (An asterisk “*” next to the rating value indicates a 40 ppm test suspension was used.) The test suspension was sprayed to the point of run-off on wheat seedlings. The following day the seedlings were inoculated with a spore dust of Blumeria graminis f. sp. tritici (also known as Erysiphe graminis f. sp. tritici, the causal agent of wheat powdery mildew) and incubated in a growth chamber at 20° C. for 8 days, after which time visual disease ratings were made. Results for Tests A-G are given in Table A. In the Table, a rating of 100 indicates 100% disease control and a rating of 0 indicates no disease control (relative to the controls). A hyphen (-) indicates no test results.

[3] = tested on: Puccinia recondita f. sp. tritici; assay: Test E: spray after inoculation of wheat seedlings, wheat leaf rust, visual disease rating; type: in vivo; conditions: 200 ppm test suspension, sprayed after inoculation with Puccinia recondita f. sp. tritici
Protocol: General protocol for preparing test suspensions for Tests A-G: the test compounds were first dissolved in acetone in an amount equal to 3% of the final volume and then suspended at the desired concentration (in ppm) in acetone and purified water (50/50 mix by volume) containing 250 ppm of the surfactant Trem® 014 (polyhydric alcohol esters). The resulting test suspensions were then used in Tests A-G. Each test was conducted in triplicate, and the results were averaged. Spraying a 200 ppm test suspension to the point of run-off on the test plants was the equivalent of a rate of 800 g/ha. Unless otherwise indicated, the rating values indicate a 200 ppm test suspension was used. (An asterisk “*” next to the rating value indicates a 40 ppm test suspension was used.) Wheat seedlings were inoculated with a spore suspension of Puccinia recondita f. sp. tritici (the causal agent of wheat leaf rust) and incubated in a saturated atmosphere at 20° C. for 24 h, and then moved to a growth chamber at 20° C. for 2 days. At the end of this time the, the test suspension was sprayed to the point of run-off on the wheat seedlings, and then the seedlings were moved back to the growth chamber at 20° C. for 4 days. Upon removal, visual disease ratings were made. Results for Tests A-G are given in Table A. In the Table, a rating of 100 indicates 100% disease control and a rating of 0 indicates no disease control (relative to the controls). A hyphen (-) indicates no test results.

Septoria tritici = assay: Test D: preventive spray on wheat seedlings, wheat leaf blotch, visual disease rating; type: in vivo; conditions: 200 ppm test suspension, Septoria tritici inoculated the day after spraying; for pest or weed control at 200 ppm: Zymoseptoria tritici, 504 h
Protocol: General protocol for preparing test suspensions for Tests A-G: the test compounds were first dissolved in acetone in an amount equal to 3% of the final volume and then suspended at the desired concentration (in ppm) in acetone and purified water (50/50 mix by volume) containing 250 ppm of the surfactant Trem® 014 (polyhydric alcohol esters). The resulting test suspensions were then used in Tests A-G. Each test was conducted in triplicate, and the results were averaged. Spraying a 200 ppm test suspension to the point of run-off on the test plants was the equivalent of a rate of 800 g/ha. Unless otherwise indicated, the rating values indicate a 200 ppm test suspension was used. (An asterisk “*” next to the rating value indicates a 40 ppm test suspension was used.) The test suspension was sprayed to the point of run-off on wheat seedlings. The following day the seedlings were inoculated with a spore suspension of Septoria tritici (the causal agent of wheat leaf blotch) and incubated in saturated atmosphere at 24° C. for 48 h. and then the seedlings were moved to a growth chamber at 20° C. for 19 additional days, after which time visual disease ratings were made. Results for Tests A-G are given in Table A. In the Table, a rating of 100 indicates 100% disease control and a rating of 0 indicates no disease control (relative to the controls). A hyphen (-) indicates no test results.

Septoria nodorum = assay: Test C: preventive spray on wheat seedlings, Septoria glume blotch, visual disease rating; type: in vivo; conditions: 200 ppm test suspension, Septoria nodorum inoculated the day after spraying; for pest or weed control at 200 ppm: Parastagonospora nodorum, 264 h
Protocol: General protocol for preparing test suspensions for Tests A-G: the test compounds were first dissolved in acetone in an amount equal to 3% of the final volume and then suspended at the desired concentration (in ppm) in acetone and purified water (50/50 mix by volume) containing 250 ppm of the surfactant Trem® 014 (polyhydric alcohol esters). The resulting test suspensions were then used in Tests A-G. Each test was conducted in triplicate, and the results were averaged. Spraying a 200 ppm test suspension to the point of run-off on the test plants was the equivalent of a rate of 800 g/ha. Unless otherwise indicated, the rating values indicate a 200 ppm test suspension was used. (An asterisk “*” next to the rating value indicates a 40 ppm test suspension was used.) The test suspension was sprayed to the point of run-off on wheat seedlings. The following day the seedlings were inoculated with a spore suspension of Septoria nodorum (the causal agent of Septoria glume blotch) and incubated in a saturated atmosphere at 24° C. for 48 h, and then moved to a growth chamber at 20° C. for 9 days, after which time visual disease ratings were made. Results for Tests A-G are given in Table A. In the Table, a rating of 100 indicates 100% disease control and a rating of 0 indicates no disease control (relative to the controls). A hyphen (-) indicates no test results.

Botrytis cinerea = assay: Test A: preventive spray on tomato seedlings, tomato Botrytis, visual disease rating; type: in vivo; conditions: 120 h, 200 ppm test suspension, Botrytis cinerea inoculated the day after spraying
Protocol: General protocol for preparing test suspensions for Tests A-G: the test compounds were first dissolved in acetone in an amount equal to 3% of the final volume and then suspended at the desired concentration (in ppm) in acetone and purified water (50/50 mix by volume) containing 250 ppm of the surfactant Trem® 014 (polyhydric alcohol esters). The resulting test suspensions were then used in Tests A-G. Each test was conducted in triplicate, and the results were averaged. Spraying a 200 ppm test suspension to the point of run-off on the test plants was the equivalent of a rate of 800 g/ha. Unless otherwise indicated, the rating values indicate a 200 ppm test suspension was used. (An asterisk “*” next to the rating value indicates a 40 ppm test suspension was used.) The test suspension was sprayed to the point of run-off on tomato seedlings. The following day the seedlings were inoculated with a spore suspension of Botrytis cinerea (the causal agent of tomato Botrytis) and incubated in saturated atmosphere at 20° C. for 48 h, and then moved to a growth chamber at 24° C. for 3 additional days, after which time visual disease ratings were made. Results for Tests A-G are given in Table A. In the Table, a rating of 100 indicates 100% disease control and a rating of 0 indicates no disease control (relative to the controls). A hyphen (-) indicates no test results.

| melting point | SMILES | Test B rating (disease control) (Alternaria solani) | Test F rating (disease control) [1] | Test G rating (disease control) [2] | Test E rating (disease control) [3] | Test D rating (disease control) (Septoria tritici) | Test C rating (disease control) (Septoria nodorum) | pest or weed control at 200 ppm [1] | pest or weed control at 200 ppm [2] | pest or weed control at 200 ppm (Septoria tritici) | pest or weed control at 200 ppm (Botrytis cinerea) | pest or weed control at 200 ppm (Septoria nodorum) |
| --- | --- | --- | --- | --- | --- | --- | --- | --- | --- | --- | --- | --- |
| – | CC=C(C)C(O)c1c(-c2c(F)cccc2Cl)c(C)nn1C (stereo not drawn) [Compound 17] | 58% | 74% | 78% | 9% | 72% | 0% | – | – | – | – | – |
| 98 to 100 °C | Cc1nn(C)c(N2CCC(C)CC2)c1-c1ccc(F)cc1Cl [Compound 42, 1-[4-(2-chloro-4-fluorophenyl)-1,3-dimethyl-1H-pyrazol-5-yl]-4-methylpiperidine] | – | – | – | – | – | – | 72% | 0% | 99% | 0% | 0% |
| – | Cc1nn(C)c(C(O)C2CCCCC2)c1-c1c(F)cccc1Cl (stereo not drawn) [Compound 16, 4-(2-chloro-6-fluorophenyl)-α-cyclohexyl-1,3-dimethyl-1H-pyrazole-5-methanol] | 89% | – | – | 0% | – | – | 79% | 100% | 100% | – | 0% |
| – | CCC=C(C)C(O)c1c(-c2c(F)cccc2F)c(C)nn1C (stereo not drawn) [Compound 18] | 96% | 18% | 60% | 9% | 24% | 0% | – | – | – | – | – |
